Measurements from patent US20070275911A1, “Targeted Drug-Formaldehyde Conjugates and Methods of Making and Using the Same” (priority 2003, published 2007).

Key:
[1] = Hydrolysis of anthracycline-formaldehyde N-Mannich bases followed by HPLC
Experimental: The area under the curve for the N-Mannich base was determined at each time point and was used to establish the kinetics of decomposition, using regression software. Hydrolysis of AOM-doxsaliform was carried out in pH 8.0 100 mM sodium phosphate buffer at 37° C. AOM-doxsaliform was dissolved in 48.0 μL DMSO and this solution was diluted into phosphate buffer to give 4.8 mL of an […] solution containing 1% DMSO. To this solution was added 6 μL of pig liver esterase (0.8 units/μL; Sigma; Milwaukee, Wis.) to achieve a final concentration of 1.0 units/mL. […] Brief centrifugation served to pellet the insoluble fraction. The drug solution was then transferred to a round bottom flask and concentrated by brief rotary-evaporation at 20° C. Reverse phase HPLC was used to analyze the extent of hydrolysis.
Hydrolysis of the N-Mannich bases, prepared from either doxorubicin or daunorubicin and the respective amides, at 37° C. in pH 7.4 triethylammonium acetate (TEAA) buffer (20 mM) containing 10-30% MeOH was monitored by reverse phase HPLC. […] Identification of a less robust construct that could be used to rapidly deliver the active Schiff base metabolite of doxorubicin to a growing tumor was undertaken.

[2] = test system: PC3/AR and PC3/neo cells; details: 3 h treatment / over time
Experimental: The fluorescence of doxorubicin can be monitored in order to determine the rate of uptake and intracellular distribution of the anthraquinone fluorophore.
This cell suspension was dispensed in 2 mL aliquots into 6-well tissue culture plates. Plates were then incubated for 36 h at 37° C. in a humidified atmosphere of 5% CO2 and 95% air. The medium was replaced with 1 mL of phenol red-free RPMI 1640 growth medium supplemented with 10% dextran-coated charcoal stripped FBS prior to addition of the test compound. The appropriate compound was dissolved in DMSO and the concentration was adjusted to 50-200 μM by measuring the solution absorbance at 480 nm. Addition of 10 μL of the appropriate doxorubicin or prodrug solution was followed by incubation at 37° C. as indicated. The drug solution in individual wells was removed at the appropriate time and the cells were washed with 1 mL of the phenol red-free growth medium. The washed cells were then supplemented with 1 mL of phenol-red free growth medium for imaging.

[3] = molecular target: T1, AEBS (Homo sapiens, UniProt Q15125+Q9UBM7); experiment: AEBS binding, competition with 3H-tamoxifen in MCF-7 cell lysate; details: 50 nM competitor
T1 construct: MCF-7 cells were utilized as the AEBS source; endogenous in cells; host or cells: MCF-7 cells

[4] = Tolerance, acute toxicity and efficacy in mice; details: preliminary mouse in vivo formulation experiments

T1 sequence (Q15125 2-230): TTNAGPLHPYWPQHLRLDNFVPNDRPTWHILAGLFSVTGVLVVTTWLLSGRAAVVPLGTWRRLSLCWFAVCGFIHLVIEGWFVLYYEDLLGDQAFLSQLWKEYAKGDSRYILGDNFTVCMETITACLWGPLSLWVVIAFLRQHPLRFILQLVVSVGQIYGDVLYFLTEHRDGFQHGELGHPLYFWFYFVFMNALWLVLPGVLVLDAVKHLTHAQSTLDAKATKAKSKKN
T1 sequence (Q9UBM7 whole entry): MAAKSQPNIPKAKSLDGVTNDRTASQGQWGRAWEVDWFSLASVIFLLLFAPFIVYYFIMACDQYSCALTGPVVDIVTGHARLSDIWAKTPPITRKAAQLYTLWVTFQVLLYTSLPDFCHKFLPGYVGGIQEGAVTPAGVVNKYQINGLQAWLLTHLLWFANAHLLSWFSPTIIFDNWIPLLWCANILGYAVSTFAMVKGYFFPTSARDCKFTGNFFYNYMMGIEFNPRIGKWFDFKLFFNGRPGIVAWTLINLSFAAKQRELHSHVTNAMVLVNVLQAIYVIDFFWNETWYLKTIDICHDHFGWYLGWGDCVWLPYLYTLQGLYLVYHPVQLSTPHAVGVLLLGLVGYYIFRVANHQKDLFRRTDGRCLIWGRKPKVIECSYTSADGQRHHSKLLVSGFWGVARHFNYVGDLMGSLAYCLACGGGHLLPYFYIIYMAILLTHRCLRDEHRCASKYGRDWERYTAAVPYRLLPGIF

SMILES	estimated pKa of the amino moiety [1]	storage stability of lyopholyzed salts ([1]; −20° C.)	decomposition of the free base on storage ([1]; −20° C., after 3 weeks) [%]	intracellular distribution of fluorescence over time [2]	AEBS binding affinity relative to the targeting group ([3]; 0.05 nM 3H-tamoxifen) [%]	AEBS binding affinity relative to the targeting group ([3]; 0.5 nM 3H-tamoxifen) [%]	AEBS binding affinity relative to the targeting group ([3]; 5 nM 3H-tamoxifen) [%]	acute toxicity [4]
COc1cccc2c1C(=O)c1c(O)c3c(c(O)c1C2=O)C[C@@](O)(C(=O)CO)C[C@@H]3O[C@H]1C[C@H](NCNC(=O)c2ccccc2O)[C@H](O)[C@H](C)O1 [doxsaliform, N-(2-Hydroxybenzamido-methyl)-doxorubicin]	3.0-3.5	stable at −20 °C for periods of several months	~20	exclusive nuclear accumulation of fluorescence	–	–	–	–
CC/C(=C(/c1ccc(O)cc1)c1ccc(OCCN(C)CCOCCOCCO/N=C/c2ccc(O)c(C(=O)NCN[C@H]3C[C@H](O[C@H]4C[C@](O)(C(=O)CO)Cc5c(O)c6c(c(O)c54)C(=O)c4c(OC)cccc4C6=O)O[C@@H](C)[C@H]3O)c2)cc1)c1ccccc1 [11c, E/Z-N-(2-Hydroxy-5-{[2-(2-{2-[(2-{4-[1-(4-hydroxy-phenyl)-2-phenyl-but-1-enyl]-phenoxy}-ethyl)-methyl-amino]-ethoxy}-ethoxy)-ethoxyimino]-methyl}-benzamide)-doxorubicin]	–	–	–	–	70	72	48	substantially less than that of doxoform
